pIC50: −log10 of the molar value. Read-outs that look alike come from different tables or passages of the source.
What was measured:
GR = target: T1, GR (Homo sapiens, UniProt P04150); experiment: GR radioligand binding assay, competition with [3H]Dex in K562 cells
T1 construct: endogenous in cells; host or cells: K562
T1 sequence (P04150 1-777): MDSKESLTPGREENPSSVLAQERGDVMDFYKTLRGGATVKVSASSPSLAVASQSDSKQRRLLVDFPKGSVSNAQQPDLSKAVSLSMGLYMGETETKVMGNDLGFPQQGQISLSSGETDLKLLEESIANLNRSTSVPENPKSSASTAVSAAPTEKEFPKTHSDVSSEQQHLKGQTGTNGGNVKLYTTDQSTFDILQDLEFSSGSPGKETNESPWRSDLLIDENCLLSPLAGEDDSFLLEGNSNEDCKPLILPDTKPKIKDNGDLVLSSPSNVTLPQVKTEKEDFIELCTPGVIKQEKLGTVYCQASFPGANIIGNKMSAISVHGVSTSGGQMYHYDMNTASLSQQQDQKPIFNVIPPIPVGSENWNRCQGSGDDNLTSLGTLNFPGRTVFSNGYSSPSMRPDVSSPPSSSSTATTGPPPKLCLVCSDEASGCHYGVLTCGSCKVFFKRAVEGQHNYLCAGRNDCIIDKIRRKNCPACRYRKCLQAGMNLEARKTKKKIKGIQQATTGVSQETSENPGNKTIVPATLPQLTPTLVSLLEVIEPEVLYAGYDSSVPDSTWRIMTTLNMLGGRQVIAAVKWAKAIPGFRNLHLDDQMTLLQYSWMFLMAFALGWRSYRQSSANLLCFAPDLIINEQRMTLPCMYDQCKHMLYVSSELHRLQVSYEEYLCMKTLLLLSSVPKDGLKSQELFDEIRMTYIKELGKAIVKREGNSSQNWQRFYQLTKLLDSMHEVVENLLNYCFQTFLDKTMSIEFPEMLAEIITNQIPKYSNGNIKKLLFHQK
Experimental: (A,B). […] The stability of the complex was simulated using molecular dynamics in the GROMACS program. (C) GR binding affinity was estimated using a radioligand binding assay. […] Cell lysate radioactivity was measured using a RackBeta 1215 LC (LKB Wallac, Turku, Finland) spectrometer for 4 min. […] The experiments were performed in triplicate (n = 3).
After 90 min of incubation, the cells were washed twice by centrifugation in cold serum-free medium (1500 rpm, 5 min). The cells were then lysed with RIPA buffer (50 mM Tris (pH 8.0), 150 mM NaCl, 1 mM ethylenediaminetetraacetic acid, 0.1% sodium dodecyl sulfate, 0.5% sodium deoxycholate, 1% triton-X100, 10% glycerin, and protease inhibitor) for 20 min. Lysates were transferred to scintillation liquid, and radioactivity was measured using a RackBeta 1215 LC spectrometer for 4 min. […] IC50 was determined using GraphPad Prism software, Ver.7.0. […] “Top” meant the highest value in dpm and was equal to 100%, while the “bottom” was considered as the lowest value (0%). […] The IC50 values for each ligand were determined by plotting these curves. The experiments were performed in triplicate.

[1] = system: NF-kB activity in Granta cells; experiment: NF-kB.Luc reporter assay in Granta cells; assay type: cell-based; conditions: 5 h, 4S-C2 10 µM, 10S-E2 1 µM
Experimental: (§1) We analyzed GR TR function using an NF-kB.Luc reporter assay with the irritating inflammatory agent phorbol 13-acetate 12-myristate (TPA) as an inducer of NF-kB signaling and positive control.
(§2) Figure 4 Effects of synephrine derivatives on GR transrepression in Granta lymphoma and K562 leukemia cells. (A) K562 and Granta cells stably infected with the lentiviruses bearing the NF-kB luciferase reporter. Cells were incubated for 5 h with the solvent (control), TPA (5 ng/mL), 4S-C2 (10 µM), 8S-E3 (10 µM), 10S-E2 (1 µM), or 13S-G2 (1 µM). Luciferase activity was determined as described in the Materials and Methods section. (B) IL1-α and IL6 mRNA expression in K562 and Granta cells. Q-PCR results were normalized to the expression of the housekeeping gene RPL27 and are presented as the fold change compared to the control. The mean ± SD was calculated for three individual samples/condition (n = 3). Statistically significant differences compared to the control: * p < 0.05, ** p < 0.01.
Lentiviral stocks were generated using the lentiviral expression vector NF-kB. Luc was encoded with Firefly Luciferase reporters with the NF-kB-responsive promoter of minimal CMV promoter as a control (“System Bioscience”, Moutain View, CA, USA), along with packing plasmids GAG, REV, and VSVg. HEK-293T cells were transfected with the abovementioned plasmids using TurboFect reagent (“Thermo Scientific”, Waltham, MA, USA) according to the manufacturer’s protocol. […] The infection efficiency exceeded 90% (tracked by GFP fluorescence).
(§3) Cells (10^4 cells/well in a 24-well plate), stably expressing Firefly Luciferase under the NF-kB promoter, were treated for 5 h with TPA (12-O-tetradecanoylphorbol-13-acetate, Boston, MA, USA, 10 ng/mL), 4S-C2 (10 µM), 8S-E3 (10 µM), 10S-E2 (1 µM), 13S-G2 (1 µM), or the vehicle. Luciferase activity was measured as described using a commercial Luciferase Assay (“Promega”, Madison, WI, USA) and Luminometer TD 20/20 (“Turner Design Instruments”, San Jose, CA, USA). […]

[2] = system: NF-kB activity in K562 cells; experiment: NF-kB.Luc reporter assay in K562 cells; assay type: cell-based; conditions: 5 h, 4S-C2 10 µM
Experimental: as §1
as §2, with “Q-PCR results were normalized to the expression of the housekeeping gene RPL27 and are presented as the fold change compared to the control.” left out, “Statistically significant differences compared to the control: * p < 0.05, ** p < 0.01.” left out
Lentiviral stocks were generated using the lentiviral expression vector NF-kB. […] The infection efficiency exceeded 90% (tracked by GFP fluorescence).
as §3

[3] = system: GR phosphorylated by Ser211 in K562 and Granta cells; experiment: Western blot of nuclear phospho-GR (Ser211); assay type: cell-based; conditions: 10 h; Dex 10 µM, 4S-C2 50 µM, 8S-E3 50 µM, 10S-E2 15 µM, 13S-G2 25 µM
Experimental: (§4) Figure 3 Effects of synephrine derivatives on GR transactivation in Granta lymphoma and K562 leukemia cells. (A) Q-PCR analysis of FKBP51, GILZ, and DDIT4 mRNA expression in K562 and Granta cells. […] The Q-PCR results were normalized to the expression of the housekeeping gene RPL27 and are presented as fold changes compared to the control. The mean ± SD was calculated for three individual samples/condition (n = 3). Statistically significant differences compared to the control: * p < 0.05, ** p < 0.01. (B) The levels of the nuclear fraction of phospho-GR (Ser211) were determined using Western blot analysis (n = 3; characteristic images are presented in the figure). Histone H3 was used as a loading control.
Western blot analysis was performed as previously described. Proteins were resolved using SDS-PAGE. Membranes were blocked with 5% nonfat milk solution and then incubated with primary antibodies against phosphorylated GR (pGR, Ser211) (“Santa Cruz Biotechnology”, Santa Cruz, CA, USA) overnight at 4 °C. To verify equal protein loading and adequate transfer, the membranes were probed with Histone H3 antibodies (“Cell Signaling”, Boston, MA, USA). Goat anti-rabbit IgGs (“Jackson Immuno Research”, West Grove, PA, USA) were used as secondary antibodies. Signals were detected using ECL reagent and an ImageQuant LAS4000 system (“GE HealthCare”, Chicago, IL, USA). ImageJ 1.54h software was used for densitometry. The experiments were performed in triplicate.
7 K562, pGR nuclear 5 Granta, pGR nuclear
Supplementary Figure S 22. Quantification of Western blot analysis. K562 and Granta cells […]
μM) and 13S-G2 (25 μ M) for 10 h. Quantification of Western blot anal ysis of p- GR protein levels was done usin g Im a ge J f ree so ftwar e. Statisticall y significant diff eren ces as compared to control: […]

[4] = system: leukemia and lymphoma cells (Granta, K562); set-up: method as in PMID 39858397; conditions: leukemia and lymphoma cells; read-out: cell viability IC50; cited from earlier work
[5] = system: FKBP51, GILZ, DDIT4 mRNA expression in K562 and Granta cells; experiment: Q-PCR of GR transactivation marker genes; assay type: cell-based; conditions: 4 h (FKBP51, GILZ) or 24 h (DDIT4); Dex 10 µM, 10S-E2 0.1 µM; vs control
Source text: Q-PCR results were confirmed by Western blot analysis of the level of GR phosphorylated by Ser211, known as a crucial protein modification for GR TA realization because of its binding to short cysteine-rich fragments of the coactivator CREB-binding protein [41].
as §4
Total RNA isolation from cell cultures and murine bones, reverse transcription, and Q-PCR were performed as described in [36]. Primers were designed using NCBI Primer-BLAST https://www.ncbi.nlm.nih.gov/tools/primer-blast/, accessed on 25 August 2025 (Supplementary Table S1). Results were normalized to the expression of the housekeeping RPL27 и Rpl27 genes. The experiments were performed in triplicate.

Row | SMILES | pIC50 (GR) | effect on NF-kB activity [1] | effect on NF-kB activity [2] | GR phosphorylation level at Ser211 [3] | pIC50 [4] | expression of TA marker genes FKBP51, GILZ, DDIT4 [5] | pIC50 (GR; K562 cells, 0.5 µM [3H]Dex, 90 min, n = 3)
1 | CCCCCCNCC(O)c1ccc(OC)cc1 (stereo not drawn) [4S-C2, 2-(hexylamino)-1-(4-methoxyphenyl)ethanol] | 5.49 | significantly decreased | induced it | weak increase | – | – | –
2 | CCCCCCNCC(O)c1ccc([N+](=O)[O-])cc1 (stereo not drawn) [13S-G2, 2-(hexylamino)-1-(4-nitrophenyl)ethanol] | 6.16 | – | – | weak increase | 4.59 to 4.89 | did not increase the expression | –
3 | CNCC(Cl)c1ccc(OC(C)=O)cc1 (stereo not drawn) [CpdA, reference compound] | – | – | – | – | – | – | 5.55

— publication PMC12691742, “Anti-Cancer Outcome of Glucocorticoid Receptor Transrepression by Synephrine Derivatives in Hematological Malignancies” (International Journal of Molecular Sciences, 2025)
